Reference: article PMC8344761 (Journal of Enzyme Inhibition and Medicinal Chemistry, 2021)

What was measured:
[1] = Cytotoxicity assay (MTT), normal cells; format: cell-based, human; conditions: human, mean ± SEM
Experimental: (§1) Hepatocellular carcinoma cell lines (HepG2, Huh7), human pancreatic ductal epithelial cell line (H6c7), and normal human colon cell line (CCD841) were obtained from the American Type Culture Collection (ATCC) (Manassas, VA, USA). Cells were cultured in DMEM/High Glucose media (Hep3B, Huh7, CCD841) or MEM/EBSS media (HepG2) containing 10% FBS, 100 IU/ml of penicillin and 100 µg/ml of streptomycin. H6c7 cells were cultured in keratinocyte serum free media supplemented with epidermal growth factor and bovine pituitary extract. Cells were maintained in 5% CO2 humidified atmosphere at 37 °C.
Cells were seeded in a 96-well plate and allowed to adhere for 24 h. Cells in low serum (1%)-containing medium were treated with drugs for 48 h. In case of H6c7 cells, cells in keratinocyte serum free media were treated with drugs for 48 h. Then, cell viability was measured using MTT assay. Optical density was measured at 540 nm using a Spectrostar Nano microplate reader (BMG LABTECH).

VEGFR-2 tyrosine kinase = molecular target: T1, VEGFR-2 tyrosine kinase (Homo sapiens, UniProt P35968); assay: VEGFR-2 (KDR) kinase assay (ADP-glow); format: biochemical; conditions: fixed concentration 1 µM; read-out: inhibitory activity against VEGFR-2 tyrosine kinase
T1 construct: purchased Promega

Hep3B cells = assay: Sphere formation assay; format: cell-based; conditions: Homo sapiens, 48 h drug treatment, 13 days culture, read-out: % Inhibition of sphere forming Hep3B
Experimental: (§2) Sphere forming ability of Hep3B and Huh7 cells were examined after incubation with drugs for 48 h. Briefly, 3 × 10^3 cells which were pre-treated with or without drugs in prEGM media (Lonza, Basel, Switzerland) were seeded on an ultra-low adhering 24 well plate (Corning Incorporated Costar, Corning, NY). Twice a week, 500 µL of used medium was replaced with fresh prEGM media. At 13 days after plating, images of spheres were captured using Celloger Mini (Curiosis Inc., Seoul, South Korea). The number of spheroids over 50 µm in diameter was counted by using Image J software (National Institute of Health, Bethesda, MD).

Huh7 cells = assay: Sphere formation assay; format: cell-based; conditions: Homo sapiens, Huh-7, 48 h drug treatment, 13 days culture, read-out: % Inhibition of sphere forming Huh7
Experimental: as §2

HepG2 = assay: Cell proliferation assay (MTT); format: cell-based; conditions: Homo sapiens, 48 h, mean ± SEM of three independent experiments, read-out: Cancer cell proliferation IC50 HepG2
Experimental: as §1
(§3) Cells were seeded in a 96-well plate and allowed to adhere for 24 h. The cells were serum starved in 1% serum containing medium for 12 h, and then treated with drugs in 10% serum-containing medium. After incubation for 48 h, cell proliferation was measured using MTT assay. Optical density was measured at 540 nm using a Spectrostar Nano microplate reader (BMG LABTECH GmbH, Ortenberg, Germany).

Hep3B = assay: Cell proliferation assay (MTT); format: cell-based; conditions: Homo sapiens, 48 h, mean ± SEM of three independent experiments, read-out: Cancer cell proliferation IC50 Hep3B
Experimental: as §1, §3

Huh7 = assay: Cell proliferation assay (MTT); format: cell-based; conditions: Homo sapiens, Huh-7, 48 h, mean ± SEM of three independent experiments, read-out: Cancer cell proliferation IC50 Huh7
Experimental: as §1, §3

A-Raf = molecular target: T2, A-Raf (Homo sapiens, UniProt P10398); assay: Raf kinase assay (Kinase HotSpot, Reaction Biology Corp.); format: biochemical
T2 sequence (P10398 1-606): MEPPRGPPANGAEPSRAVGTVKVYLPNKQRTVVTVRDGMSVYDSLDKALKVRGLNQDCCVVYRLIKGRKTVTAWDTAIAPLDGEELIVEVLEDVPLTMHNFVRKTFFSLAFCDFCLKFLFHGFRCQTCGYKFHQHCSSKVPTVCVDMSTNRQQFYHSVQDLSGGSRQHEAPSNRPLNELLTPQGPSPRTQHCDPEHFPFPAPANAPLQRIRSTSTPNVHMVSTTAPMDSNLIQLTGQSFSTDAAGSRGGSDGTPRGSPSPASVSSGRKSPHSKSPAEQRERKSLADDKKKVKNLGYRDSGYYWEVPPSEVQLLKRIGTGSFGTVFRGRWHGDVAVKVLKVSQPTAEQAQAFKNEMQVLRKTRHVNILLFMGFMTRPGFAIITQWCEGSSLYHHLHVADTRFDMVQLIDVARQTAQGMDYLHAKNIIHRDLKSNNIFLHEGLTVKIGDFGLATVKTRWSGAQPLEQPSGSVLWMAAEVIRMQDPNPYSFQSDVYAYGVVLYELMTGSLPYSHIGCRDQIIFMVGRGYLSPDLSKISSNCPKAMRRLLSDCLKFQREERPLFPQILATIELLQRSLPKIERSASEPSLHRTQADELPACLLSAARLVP
Experimental: Compounds were delivered into each Raf reaction, followed ∼20 min later by addition of a mixture of ATP and [γ-^33P-ATP] (specific activity approx. 500 cpm/pmol, concentration as required) to a final concentration of 10 µM. […] Then, the reaction was spotted onto a P30 filtermat, and unbound phosphate was removed by washing three times for 5 min in 75 mM phosphoric acid and once in methanol prior to drying and scintillation counting. […] IC50 values and curve fits were obtained using Prism (GraphPad Software, La Jolla, CA).

[2] = tested on: Huh7 cells xenografted onto CAM; assay: Huh7-xenografted CAM tumour model; format: in vivo, chick; conditions: 10 µM final concentration on CAM; Huh7 xenograft
Experimental: Cancer cell xenograft onto chick chorioallantoic membrane (CAM), an in vivo tumour model, was used to evaluate anti-tumour efficacy of compounds. Fertilised chicken eggs purchased from Byeolbichon Farm (Gyeongbuk, South Korea) were incubated at 37 °C with 55% relative humidity. On day 9 of egg incubation (embryonic day 9, E9), a small hole was made in the shell over the air sac after the selection of bifurcated vessels. Another hole was made on the broadside using a needle by applying negative pressure from the wider part, creating false air sac. Using a grinding wheel (Dremel, Racine, WI), a small window (1 cm^2) was created in the eggshell above the false air sac. For generation of xenograft CAM tumour model, Huh7 cells (1.5 × 10^6 cells/CAM) were inoculated on the CAM with or without test drugs (10 µM final concentration). On day 13 of egg incubation (E13), tumour tissues attached to CAM were resected from the embryo and harvested. Photographs of tumour as well as blood vessel branches were taken using optical microscope (Olympus Corporation, Tokyo, Japan). Tumour tissues were weighted and the number of vessel branch points within the tumour region was counted.

T1 sequence (P35968 20-1356): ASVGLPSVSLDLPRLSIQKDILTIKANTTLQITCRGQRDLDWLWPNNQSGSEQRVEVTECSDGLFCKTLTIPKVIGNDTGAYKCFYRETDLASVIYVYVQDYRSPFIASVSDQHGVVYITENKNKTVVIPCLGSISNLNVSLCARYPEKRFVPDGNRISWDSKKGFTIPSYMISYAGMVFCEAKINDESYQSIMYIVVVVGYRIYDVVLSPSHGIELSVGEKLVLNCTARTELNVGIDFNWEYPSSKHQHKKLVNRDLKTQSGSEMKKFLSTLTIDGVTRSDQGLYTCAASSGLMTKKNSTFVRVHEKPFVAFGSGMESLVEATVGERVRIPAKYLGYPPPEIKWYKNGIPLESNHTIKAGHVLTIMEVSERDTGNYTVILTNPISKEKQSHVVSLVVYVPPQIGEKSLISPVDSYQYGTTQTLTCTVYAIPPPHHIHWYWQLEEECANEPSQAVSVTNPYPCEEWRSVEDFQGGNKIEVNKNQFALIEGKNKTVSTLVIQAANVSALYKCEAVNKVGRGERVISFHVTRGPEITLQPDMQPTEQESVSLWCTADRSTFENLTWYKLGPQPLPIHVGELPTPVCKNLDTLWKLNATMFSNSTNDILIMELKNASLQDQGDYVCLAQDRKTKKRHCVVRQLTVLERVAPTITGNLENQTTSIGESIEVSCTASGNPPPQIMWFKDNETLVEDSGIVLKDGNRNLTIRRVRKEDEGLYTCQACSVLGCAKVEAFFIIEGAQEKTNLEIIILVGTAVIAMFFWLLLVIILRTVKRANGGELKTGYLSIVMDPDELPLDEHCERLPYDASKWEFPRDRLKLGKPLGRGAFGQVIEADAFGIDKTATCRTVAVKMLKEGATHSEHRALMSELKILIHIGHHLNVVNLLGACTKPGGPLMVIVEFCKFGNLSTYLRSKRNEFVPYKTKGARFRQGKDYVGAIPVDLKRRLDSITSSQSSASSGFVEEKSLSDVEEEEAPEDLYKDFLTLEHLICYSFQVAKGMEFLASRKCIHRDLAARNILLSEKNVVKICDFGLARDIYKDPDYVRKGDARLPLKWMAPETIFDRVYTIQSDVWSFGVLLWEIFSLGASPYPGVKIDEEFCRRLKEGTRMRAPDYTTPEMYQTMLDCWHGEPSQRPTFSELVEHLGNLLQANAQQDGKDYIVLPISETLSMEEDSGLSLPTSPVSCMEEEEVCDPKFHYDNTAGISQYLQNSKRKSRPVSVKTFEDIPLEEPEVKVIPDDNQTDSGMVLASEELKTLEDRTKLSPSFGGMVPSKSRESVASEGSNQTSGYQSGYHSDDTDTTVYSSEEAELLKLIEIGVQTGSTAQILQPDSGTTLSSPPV

- inhibition at 1 µM (VEGFR-2 tyrosine kinase): ~32%
- IC50 (HepG2): 6.98 ± 0.08 µM
- IC50 (Hep3B): 6.23 ± 0.07 µM
- IC50 (Huh7): 5.29 ± 0.11 µM
- inhibition at 1 µM (A-Raf; fixed concentration 1 μM, mean of two independent experiments): 56%
- IC50 (A-Raf; mean ± SD of two independent experiments, read-out: In vitro Raf kinase inhibition IC50 A-Raf): 0.312 ± 0.0259 µM
- melting point: 265 °C
Compound: CNC(=O)c1cc(Oc2c(C)nc(NC(=O)Nc3ccc(Cl)c(C(F)(F)F)c3)c(C)c2C)ccn1 [Compound 4, 4-((6–(3-(4-Chloro-3-(trifluoromethyl)phenyl)ureido)-2,4,5-trimethylpyridin-3-yl)oxy)-N-methylpicolinamide]
- CC50 at 48 h ([1]; CCD841 cells (normal colon epithelial cell line)): > 10 µM
- CC50 at 48 h ([1]; H6c7 cells (normal pancreatic ductal epithelial cell line)): > 10 µM
- inhibition at 1 µM (Hep3B cells; 1 μM): 30.8%
- inhibition at 10 µM (Hep3B cells; 10 μM): 50.6%
- inhibition at 1 µM (Huh7 cells; 1 μM): 31.6%
- inhibition at 10 µM (Huh7 cells; 10 μM): 50.5%
- inhibitory effect on tumour weight [2]: weaker than that of sorafenib
